{"source": "paper PMC6430685", "about": "(Nature chemical biology, 2019)", "target": "BAX (Homo sapiens, UniProt Q07812)", "sequence (Q07812 whole entry)": "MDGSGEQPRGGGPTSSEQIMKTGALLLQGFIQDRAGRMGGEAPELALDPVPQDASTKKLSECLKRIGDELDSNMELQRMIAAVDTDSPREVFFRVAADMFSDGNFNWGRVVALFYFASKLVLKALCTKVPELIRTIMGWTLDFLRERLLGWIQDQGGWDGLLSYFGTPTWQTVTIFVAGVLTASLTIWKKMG", "assay_type": "biochemical"}
{"compound": "OC(CN1CCNCC1)Cn1c2ccccc2c2ccccc21", "note": "(stereo not shown) [BAI3]", "values": [{"measurement": "fold lower activity compared to BAI1", "result": "~ 7 fold"}]}
